The term MIC denotes the lowest concentration found to suppress growth.

Among the data in DBAASP are MIC values, retold here.

Holding throughout (test): ≥ marks a high value that may be exact or a test limit, other limits are often not marked, values filed in µg/mL are converted to µM
For test [1], the system named is Escherichia coli PCM 2057.
Test [2] relates to Staphylococcus aureus PCM 1944.
Test [3] has as its system Pseudomonas aeruginosa CCARM 2095.
The subject of test [4] is Staphylococcus epidermidis KCTC 1917.
The subject of test [5] is Pseudomonas aeruginosa CCARM 2109.
The test system of test [6] is Bacillus subtilis KCTC 3068.
For test [7], the system named is Staphylococcus aureus CCARM 3001.
Test [8] concerns Pseudomonas aeruginosa KCTC 1637.
For test [9], the system named is Salmonella typhimurium KCTC 1926.
Test [10] concerns Escherichia coli KCTC 1682.
Test [11] deals with Staphylococcus aureus CCARM 3543.
For test [12], the system named is Staphylococcus aureus KCTC 1621.
Test [13] deals with Staphylococcus aureus ATCC 2592.
Test [14] deals with Bacillus subtilis ATCC 6633.
Test [15] relates to Pseudomonas fluorescens ATCC 13525.

Converted amounts (≈) assume the structure as drawn.

With `CC[C@H](C)[C@@H]1NC(=O)[C@H](CO)NC(=O)[C@H](CCCCN)NC(=O)[C@@H](N)CSSC[C@@H](C(=O)O)NC(=O)[C@H](Cc2ccccc2)NC1=O` [CKSIFC], the minimal inhibitory concentration (MIC) in test [1] and in test [2] was at least 1430 µM each time.

On to `CC(C)C[C@H](NC(=O)[C@H](Cc1c[nH]c2ccccc12)NC(=O)[C@H](CCCCN)NC(=O)[C@H](CC(C)C)NC(=O)[C@H](Cc1c[nH]c2ccccc12)NC(=O)[C@H](CC(C)C)NC(=O)[C@H](CCCCN)NC(=O)[C@H](Cc1c[nH]c2ccccc12)NC(=O)[C@H](CC(C)C)NC(=O)[C@@H](N)CCCCN)C(=O)N[C@@H](CCCCN)C(N)=O` [KLWKLWLKWLK], for which the MIC turned out to be 16 µM (≈ 24.7 µg/mL) in test [3]; 4 µM (≈ 6.16 µg/mL) in test [4]; 16 µM (≈ 24.7 µg/mL) in test [5]; 4 µM (≈ 6.16 µg/mL) in [6]; 8 µM (≈ 12.3 µg/mL) in test [7]; 4 µM (≈ 6.16 µg/mL) in [8]. The MIC was determined as 2 µM (≈ 3.08 µg/mL) in test [9], 4 µM (≈ 6.16 µg/mL) in [10], 4 µM (≈ 6.16 µg/mL) in test [11] and 2 µM (≈ 3.08 µg/mL) in test [12].

As to `CC[C@H](C)[C@H](NC(=O)[C@H](CCCCN)NC(=O)[C@H](CC(C)C)NC(=O)[C@H](Cc1ccccc1)NC(=O)[C@H](CO)NC(=O)[C@H](CC(C)C)NC(=O)[C@H](Cc1ccccc1)NC(=O)[C@H](CCCN=C(N)N)NC(=O)[C@H](CO)NC(=O)[C@H](CC(C)C)NC(=O)[C@@H](N)CO)C(=O)N[C@H](C(=O)N[C@@H](Cc1ccc(O)cc1)C(=O)N1CCC[C@H]1C(=O)N1CCC[C@H]1C(=O)N[C@@H](C)C(=O)N[C@@H](Cc1ccccc1)C(N)=O)C(C)C` [SLSRFLSFLKIVYPPAF], the MIC is 25.2 µM (≈ 50 µg/mL) in test [13], 25.2 µM (≈ 50 µg/mL) in [14] and at least 50.4 µM in test [15].
